Assays:
[1] = tested on: foxtail, giant (giant foxtail, Setaria faberii); assay: Test A postemergence, foxtail, giant; format: in vivo; settings: 1000 g ai/ha, 0 to 100 scale
Procedure, shortened: (§1)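 Seeds sown in loam–sand blend received a directed soil spray preemergence; postemergence plants (2–10 cm, one- to two-leaf stage) were sprayed with test chemicals in non-phytotoxic solvent with surfactant. After about 10 d in greenhouse, injury was scored visually versus untreated controls, 0 (no effect) to 100 (complete control).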

[2] = tested on: corn (Zea mays); assay: Test A preemergence, corn; format: in vivo; settings: 1000 g ai/ha, 0 to 100 scale
Source text: (§2) Seeds of plant species selected from barnyardgrass (Echinochloa crus-galli), crabgrass (large crabgrass, Digitaria sanguinalis), kochia (Kochia scoparia), ragweed (common ragweed, Ambrosia elatior), morningglory (Ipomoea spp.), velvetleaf (Abutilon theophrasti), ryegrass, It. (Italian ryegrass, Lolium multiflorum), foxtail, giant (giant foxtail, Setaria faberii), wheat (Triticum aestivum), corn (Zea mays), and pigweed (Amaranthus retroflexus), were planted into a blend of loam soil and sand and treated preemergence with a directed soil spray using test chemicals formulated in a non-phytotoxic solvent mixture which included a surfactant. At the same time, plants selected from these crop and weed species and also blackgrass (Alopecurus myosuroides), and galium (catchweed bedstraw, Galium aparine), were planted in pots containing the same blend of loam soil and sand and treated with postemergence applications of test chemicals formulated in the same manner. Plants ranged in height from 2 to 10 cm and were in the one- to two-leaf stage for the postemergence treatment. Treated plants and untreated controls were maintained in a greenhouse for approximately 10 d, after which time all treated plants were compared to untreated controls and visually evaluated for injury. Plant response ratings, summarized in Table A, are based on a 0 to 100 scale where 0 is no effect and 100 is complete control. A dash (-) response means no test result.

[3] = tested on: morningglory (Ipomoea spp.); assay: Test A postemergence, morningglory; format: in vivo; settings: 1000 g ai/ha, 0 to 100 scale
Source text: as §2

[4] = tested on: sedge, umbrella (small-flower umbrella sedge, Cyperus difformis); assay: Test B flooded paddy test, sedge, umbrella; format: in vivo; settings: Flood, 1000 g ai/ha; scale of 0 to 100 where 0 is no effect and 100 is complete control; 13 to 15 d
Procedure, shortened: (§3)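 Plants at the 2-leaf stage were flooded to 3 cm above soil, and test compounds were applied directly into the paddy water, which was held at that depth throughout. After 13 to 15 d in a greenhouse, injury was rated visually against untreated controls on a 0–100 scale (0 no effect, 100 complete control).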

[5] = tested on: morningglory (Ipomoea spp.); assay: Test A preemergence, morningglory; format: in vivo; settings: 1000 g ai/ha, 0 to 100 scale
Source text: as §2

[6] = tested on: pigweed (Amaranthus retroflexus); assay: Test A preemergence, pigweed; format: in vivo; settings: 1000 g ai/ha, 0 to 100 scale
Procedure, shortened: as §1

[7] = tested on: barnyardgrass (Echinochloa crus-galli); assay: Test A postemergence, barnyardgrass; format: in vivo; settings: 1000 g ai/ha, 0 to 100 scale (0 no effect, 100 complete control)
Procedure, shortened: as §1

[8] = tested on: velvetleaf (Abutilon theophrasti); assay: Test A preemergence, velvetleaf; format: in vivo; settings: 1000 g ai/ha, 0 to 100 scale
Source text: as §2

[9] = tested on: pigweed (Amaranthus retroflexus); assay: Test A postemergence, pigweed; format: in vivo; settings: 1000 g ai/ha, 0 to 100 scale
Procedure, shortened: as §1

[10] = tested on: ducksalad (Heteranthera limosa); assay: Test B flooded paddy test, ducksalad; format: in vivo; settings: Flood, 1000 g ai/ha; scale of 0 to 100 where 0 is no effect and 100 is complete control; 13 to 15 d
Procedure, shortened: as §3

[11] = tested on: barnyardgrass (Echinochloa crus-galli); assay: Test B flooded paddy test, barnyardgrass; format: in vivo; settings: Flood, 1000 g ai/ha; scale of 0 to 100 where 0 is no effect and 100 is complete control; 13 to 15 d
Procedure, shortened: as §3

[12] = tested on: wheat (Triticum aestivum); assay: Test A preemergence, wheat; format: in vivo; settings: 1000 g ai/ha, 0 to 100 scale
Source text: as §2

[13] = tested on: rice (Oryza sativa); assay: Test B flooded paddy test, rice; format: in vivo; settings: Flood, 1000 g ai/ha; scale of 0 to 100 where 0 is no effect and 100 is complete control; 13 to 15 d
Procedure, shortened: as §3

[14] = tested on: crabgrass (large crabgrass, Digitaria sanguinalis); assay: Test A postemergence, crabgrass; format: in vivo; settings: 1000 g ai/ha, 0 to 100 scale
Source text: as §2

[15] = tested on: velvetleaf (Abutilon theophrasti); assay: Test A postemergence, velvetleaf; format: in vivo; settings: 1000 g ai/ha, 0 to 100 scale
Source text: as §2

[16] = tested on: wheat (Triticum aestivum); assay: Test A postemergence, wheat; format: in vivo; settings: 1000 g ai/ha, 0 to 100 scale
Procedure, shortened: as §1

[17] = tested on: corn (Zea mays); assay: Test A postemergence, corn; format: in vivo; settings: 1000 g ai/ha, 0 to 100 scale
Procedure, shortened: as §1

[18] = tested on: barnyardgrass (Echinochloa crus-galli); assay: Test A preemergence, barnyardgrass; format: in vivo; settings: 1000 g ai/ha, 0 to 100 scale
Procedure, shortened: as §1

[19] = tested on: crabgrass (large crabgrass, Digitaria sanguinalis); assay: Test A preemergence, crabgrass; format: in vivo; settings: 1000 g ai/ha, 0 to 100 scale
Source text: as §2

[20] = tested on: foxtail, giant (giant foxtail, Setaria faberii); assay: Test A preemergence, foxtail, giant; format: in vivo; settings: 1000 g ai/ha, 0 to 100 scale
Procedure, shortened: as §1

O=C1NCC(Cc2cccc(Cl)c2)C1C(=O)Nc1cccc(F)c1F (stereo not drawn) [Compound 1, 4-[(3-chlorophenyl)methyl]-N-(2,3-difluorophenyl)-2-oxo-3-pyrrolidinecarboxamide]
70: Plant response rating, Barnyardgrass [18]
10: Plant response rating, Velvetleaf [15]
80: Plant response rating, Foxtail, Giant [1] | Plant response rating, Barnyardgrass [7] | Plant response rating, Crabgrass [14]
132 to 134 °C: melting point
50: Plant response rating, Ducksalad [10]
0: Plant response rating, Corn [2] | Plant response rating, Morningglory [3] | Plant response rating, Sedge, Umbrella [4] | Plant response rating, Morningglory [5] | Plant response rating, Pigweed [6] | Plant response rating, Velvetleaf [8] | Plant response rating, Pigweed [9] | Plant response rating, Barnyardgrass [11] | Plant response rating, Wheat [12] | Plant response rating, Rice [13] | Plant response rating, Wheat [16] | Plant response rating, Corn [17]
90: Plant response rating, Crabgrass [19] | Plant response rating, Foxtail, Giant [20]
